Experimental data published in US6872850B2, “Small molecule inhibitors of secretion of proteins encoded by ARE-mRNAs” (Message Pharmaceuticals, priority 2001, dated 2005).
“Also recorded” adds a separate entry of the source.

Columns and labels:
TNFα = assay: ELISA of TNFα secreted into the media after LPS; type: cell-based; conditions: for effect on amount of secreted TNFα (direct TNFα secretion assay), in words: after LPS stimulation
Protocol: The ability of candidate compounds to reduce the amount of secreted TNFα was also directly tested using an ELISA assay. […] A standard ELISA analysis was used to measure the amount of TNFα secreted into the media (see, for example, Ausubel et al., supra). The effect of a candidate compound on TNFα secretion in this assay is reported in the following tables as a percentage of the amount of TNFα secreted by a control cell that was administered a DMSO vehicle control only.

3′ UTR of the TNFα gene = assay: cell-based luciferase reporter assay, 5B cell line (luciferase gene with entire 3′ UTR of the TNFα gene); set-up: species or system mouse; conditions: for Luciferase 5B (% of DMSO control): 1 h, then LPS, 5B cell line
Protocol: The candidate compounds were tested in a high-throughput, cell-based luciferase reporter assay. For this assay, a commercially available mouse macrophage Raw 264.7 cell line was stably transfected with a construct containing the CMV promoter operably linked to the luciferase gene which was modified using standard molecular biology techniques to contain the entire 3′ UTR of the TNFα gene. This 3′ UTR is important for the stability and translation of TNFα in cells. To control for effects of candidate compounds that are not specific for TNFα, a control cell line, called “3B,” was generated by stably transfecting the 264.7 cell line with a commercially available construct containing the luciferase gene (without the addition of the heterologous 3′ UTR of the TNFα gene) under the regulation of the CMV promoter.
[…] Then, lipopolysaccharide (LPS) was added to stimulate TNFα secretion. Luciferase activity was measured by determining the luminescence intensity due to the reaction of lucifern, ATP, Mg^2+, and molecular O2 (see, for example, Ausubel et al., supra). The luciferase activity in a cell incubated with a candidate compound was reported as a percentage of the luciferase activity for the corresponding cell incubated with DMSO vehicle only.
After correction for any effect caused by the administration of the DMSO only vehicle control, the effect of a candidate compound on luciferase activity in the 3B control cell line represents the global effect of the compound on any step required for expression or activity of luciferase protein, such as luciferase gene transcription, mRNA processing, mRNA stability, translation, protein stability, or enzymatic activity. […] In this case, the luciferase activity in the 5B cell line treated with the DMSO vehicle control is similar to the luciferase activity in the control 3B cell line treated with the candidate compound. Thus, the response of the 5B cell line (as a percent of the DMSO control) and the ratio of the luciferase activity in the 5B cell line (as a percent of the DMSO control) to the luciferase activity in the control 3B cell line (as a percent of the DMSO control) are similar. In desirable embodiments, the response of the 5B cell line and the 5B/3B ratio differ by less than 50, 40, 30, 20, 10, or 5%.

[1] = 10 μM compound, ratio of 5B to control 3B cell line

| SMILES | TNFα Secretion (% of DMSO control) (TNFα; 10 μM compound, 1 h, then LPS) | Luciferase 5B (% of DMSO control) (3′ UTR of the TNFα gene; 10 μM compound) | Luciferase 5B/3B (% of DMSO control 5B)/(% of DMSO control 3B) (3′ UTR of the TNFα gene; [1]) | effect on amount of secreted TNFα (direct TNFα secretion assay), in words (TNFα) | effect on luciferase activity in the 5B cell line (luciferase assay), in words (3′ UTR of the TNFα gene) | TNFα Secretion (% of DMSO control) (TNFα; 1 μM compound (Table 11)) | TNFα Secretion (% of DMSO control) (TNFα; 3 μM compound (Table 11)) | TNFα Secretion (% of DMSO control) (TNFα; 10 μM compound (Table 11)) | Luciferase 5B/3B (% of DMSO control 5B)/(% of DMSO control 3B) (3′ UTR of the TNFα gene; 1 μM compound (Table 11)) | Luciferase 5B/3B (% of DMSO control 5B)/(% of DMSO control 3B) (3′ UTR of the TNFα gene; 3 μM compound (Table 11)) | Luciferase 5B/3B (% of DMSO control 5B)/(% of DMSO control 3B) (3′ UTR of the TNFα gene; 10 μM compound (Table 11)) |
| --- | --- | --- | --- | --- | --- | --- | --- | --- | --- | --- | --- |
| CC(C)CC(NC(=O)c1ccc(C(=NNC(=N)N)c2ccccc2)cc1)C(=O)N1CCN(C(=O)C(CC2CCCCC2)NC(=O)c2ccc(C(=NNC(=N)N)c3ccccc3)cc2)CC1 (mixture of isomers) [MES 10238] | 23 % of DMSO control | 32 % of DMSO control | 78 (% of DMSO control 5B)/(% of DMSO control 3B) | – | – | – | – | – | – | – | – |
| CC(=NNC(=N)N)c1cccc(C(=O)NC(CC(C)C)C(=O)N2CCN(C(=O)C(Cc3ccc(Cl)cc3)NC(=O)c3ccc(C(=NNC(=N)N)c4ccccc4)cc3)CC2)c1 (mixture of isomers) [MES 10258] | 42 % of DMSO control | 43 % of DMSO control | 39 (% of DMSO control 5B)/(% of DMSO control 3B) | – | – | – | – | – | – | – | – |
| CC(=NNC(=N)N)c1cccc(C(=O)NC(CC(C)C)C(=O)N2CCN(C(=O)C(Cc3ccc(-c4ccccc4)cc3)NC(=O)c3ccc(C(=NNC(=N)N)c4ccccc4)cc3)CC2)c1 (mixture of isomers) [MES 10259] | 36 % of DMSO control | 22 % of DMSO control | 38 (% of DMSO control 5B)/(% of DMSO control 3B) | – | – | – | – | – | – | – | – |
| CC(=NNC(=N)N)c1cccc(C(=O)NC(CC(C)C)C(=O)N2CCN(C(=O)C(Cc3ccc4ccccc4c3)NC(=O)c3ccc(C(=NNC(=N)N)c4ccccc4)cc3)CC2)c1 (mixture of isomers) [MES 10261] | 40 % of DMSO control | 76 % of DMSO control | 71 (% of DMSO control 5B)/(% of DMSO control 3B) | – | – | – | – | – | – | – | – |
| CC(=NN=C(N)N)c1cccc(C(=O)NC(Cc2ccccc2)C(=O)N2CCN(C(=O)C(CC(C)C)NC(=O)c3ccc(C(=NN=C(N)N)c4ccccc4)cc3)CC2)c1 (mixture of isomers) [MES 11405] | 55 % of DMSO control | 39 % of DMSO control | 49 (% of DMSO control 5B)/(% of D | decreased the amount of secreted TNFα | decrease TNFα secretion | – | – | – | – | – | – |
| CC(=NNC(=N)N)c1ccc(C(=O)NC(Cc2ccccc2)C(=O)N2CCN(C(=O)C(CC(C)C)NC(=O)c3cccc(C(C)=NNC(=N)N)c3)CC2)cc1 (mixture of isomers) [MES 11452] | 88 % of DMSO control | 13 % of DMSO control | 50 (% of DMSO control 5B)/(% of D | decreased the amount of secreted TNFα | – | – | – | – | – | – | – |
| CC(C)CC(NC(=O)c1ccc(C(=NN=C(N)N)c2ccccc2)cc1)C(=O)NCCCNC(=O)C(Cc1ccccc1)NC(=O)c1ccc(C(=NN=C(N)N)c2ccccc2)cc1 (mixture of isomers) [MES 11561] | 41 % of DMSO control | 24 % of DMSO control | 26 (% of DMSO control 5B)/(% of D | decreased the amount of secreted TNFα | decrease TNFα secretion; also recorded: greatest inhibition | – | – | – | – | – | – |
| CC(=NN=C(N)N)c1cccc(C(=O)NC(CC(C)C)C(=O)NCCCNC(=O)C(Cc2ccccc2)NC(=O)c2ccc(C(=NN=C(N)N)c3ccccc3)cc2)c1 (mixture of isomers) [MES 11562] | 50 % of DMSO control | 44 % of DMSO control | 38 (% of DMSO control 5B)/(% of D | decreased the amount of secreted TNFα | decrease TNFα secretion | – | – | – | – | – | – |
| C/C(=N\N=C(N)N)c1cccc(C(=O)NCCNC(=O)[C@H](Cc2ccccc2)NC(=O)c2ccc(/C(=N/N=C(N)N)c3ccccc3)cc2)c1.O=C(O)C(F)(F)F.O=C(O)C(F)(F)F [MES 10091, (E,E)-Bisguanylhydrazone of 1-[(S)-N-(4-benzoylbenzoyl)-2-amino-3-phenylpropanoyl]-4-(3-acetylbenzoyl)-1,4-diazabutane bis trifluoroacetate] | – | – | – | – | – | 97 % of DM80 control | 41 % of DM80 control | 22 % of DM80 control | 113 (% of DMSO control 5B)/(% of D | 68 (% of DMSO control 5B)/(% of D | 73 (% of DMSO control 5B)/(% of D |
